Results on 21 compounds are retold here after patent US20180148418A1, “AMIDO-SUBSTITUTED CYCLOHEXANE DERIVATIVES” (Bayer Pharma Aktiengesellschaft, priority 2015, published 2018).

One assay addresses T1, TNKS1 (Homo sapiens, UniProt O95271).
T1 construct: purchased BPS Bioscience, San Diego, USA 80579 (TNKS1 Histone Ribosylation Assay Kit)
T1 sequence (O95271 1-1327): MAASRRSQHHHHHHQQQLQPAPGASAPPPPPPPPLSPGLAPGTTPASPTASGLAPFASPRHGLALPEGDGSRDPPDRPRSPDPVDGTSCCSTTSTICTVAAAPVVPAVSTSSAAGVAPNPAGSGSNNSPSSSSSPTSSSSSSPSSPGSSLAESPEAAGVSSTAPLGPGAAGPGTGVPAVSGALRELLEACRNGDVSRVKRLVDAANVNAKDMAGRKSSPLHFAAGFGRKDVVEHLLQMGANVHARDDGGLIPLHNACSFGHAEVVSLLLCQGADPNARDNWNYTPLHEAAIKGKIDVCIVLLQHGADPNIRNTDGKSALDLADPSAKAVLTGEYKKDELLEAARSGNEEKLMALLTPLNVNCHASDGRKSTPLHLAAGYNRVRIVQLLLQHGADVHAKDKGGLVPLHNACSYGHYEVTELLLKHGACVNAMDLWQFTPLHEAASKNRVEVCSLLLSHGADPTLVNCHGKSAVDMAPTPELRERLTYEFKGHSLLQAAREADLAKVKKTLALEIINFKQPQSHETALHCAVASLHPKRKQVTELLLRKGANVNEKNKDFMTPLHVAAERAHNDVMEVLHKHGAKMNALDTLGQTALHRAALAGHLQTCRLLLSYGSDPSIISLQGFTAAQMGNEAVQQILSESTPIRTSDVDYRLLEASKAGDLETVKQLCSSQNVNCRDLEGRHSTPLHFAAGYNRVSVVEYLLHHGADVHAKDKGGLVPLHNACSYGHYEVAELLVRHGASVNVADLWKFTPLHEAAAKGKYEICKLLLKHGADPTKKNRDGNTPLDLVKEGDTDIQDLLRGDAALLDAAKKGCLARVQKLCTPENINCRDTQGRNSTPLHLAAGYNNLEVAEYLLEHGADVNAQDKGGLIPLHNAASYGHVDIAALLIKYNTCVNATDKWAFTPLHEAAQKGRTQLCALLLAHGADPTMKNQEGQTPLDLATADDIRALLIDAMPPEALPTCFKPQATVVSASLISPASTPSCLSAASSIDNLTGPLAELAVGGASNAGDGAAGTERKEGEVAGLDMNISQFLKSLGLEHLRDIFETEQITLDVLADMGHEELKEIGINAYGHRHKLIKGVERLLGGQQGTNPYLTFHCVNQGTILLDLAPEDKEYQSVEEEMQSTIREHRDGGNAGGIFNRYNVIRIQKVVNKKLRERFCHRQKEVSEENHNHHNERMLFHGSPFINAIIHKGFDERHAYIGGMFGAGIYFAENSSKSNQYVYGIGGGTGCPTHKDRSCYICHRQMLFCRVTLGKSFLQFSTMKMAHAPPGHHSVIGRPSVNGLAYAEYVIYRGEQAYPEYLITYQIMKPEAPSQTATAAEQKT
Briefly: TNKS1 Assay B (auto-parsylation, [3H]-NAD+ SPA). It counts as biochemical. The following applies: 6 nM TNKS1, auto-parsylation, over night at room temperature.

Assay [1] has as its system HEK293 cells cotransfected with the FOP control vector. Briefly: HEK293 FOP assay (control reporter with non-functional TCF elements). To be noted: Homo sapiens, 16 hours. Type of assay: cell-based. In outline:
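Stable HEK293 line carrying FOP control reporter (randomized non-functional TCF sites, with pcDNA3), Geneticin-selected, plated 24 h before assay. Stimulated with recombinant human Wnt-3a (2500-5 ng/ml) and compounds 50 μM–15 nM (3.16-fold steps) in CAFTY buffer pH 7.4 with 2 mM Ca2+, 0.01% BSA, run parallel to TOP line.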

`CN1CC2(CCN(C(=O)c3nc[nH]c3C(=O)N[C@H]3CC[C@@]4(CCN(c5ccc(F)cc5Cl)C4=O)CC3)C2)C1` [Example 184, N-[(trans)-2-(2-chloro-4-fluorophenyl)-1-oxo-2-azaspiro[4.5]dec-8-yl]-4-[(2-methyl-2,6-diazaspiro[3.4]oct-6-yl)carbonyl]-1H-imidazole-5-carboxamide]: the IC50 against TNKS1 is 10 nM; in assay [1], ≥ 50000 nM.

`CNC(=O)c1nc[nH]c1C(=O)N[C@H]1CC[C@H](C(=O)N(C)c2ccccc2C)CC1` [Example 203, N^4-methyl-N^5-{trans-4-[methyl(2-methylphenyl)carbamoyl]cyclohexyl}-1H-imidazole-4,5-dicarboxamide]: the IC50 on TNKS1 was 630 nM; in assay [1], ≥ 50000 nM.

In the case of `CCNC(=O)c1nc[nH]c1C(=O)N[C@H]1CC[C@@]2(CCN(c3cccc(Cl)c3)C2=O)CC1` [Example 277, N^5-[(trans)-2-(3-chlorophenyl)-1-oxo-2-azaspiro[4.5]dec-8-yl]-N^4-ethyl-1H-imidazole-4,5-dicarboxamide], the IC50 against TNKS1 worked out at 260 nM; in assay [1], 31000 nM.

`CNc1ccn2ncc(C(=O)N[C@H]3CC[C@@]4(CCN(c5ccc(F)cc5Cl)C4=O)CC3)c2n1` [Example 215, N-[(trans)-2-(2-chloro-4-fluorophenyl)-1-oxo-2-azaspiro[4.5]dec-8-yl]-5-(methylamino)pyrazolo[1,5-a]pyrimidine-3-carboxamide]: the IC50 at TNKS1 is 7.5 nM; in assay [1], ≥ 50000 nM.

`C[C@]1(C(=O)Nc2ccc(F)cc2Cl)CC[C@@H](NC(=O)c2cnn3cccnc23)CC1` [Example 180, N-{cis-4-[(2-chloro-4-fluorophenyl)carbamoyl]-4-methylcyclohexyl}pyrazolo[1,5-a]pyrimidine-3-carboxamide]: the results for the half-maximal inhibitory concentration (IC50) (at TNKS1; in assay [1]) were > 10000 nM and ≥ 50000 nM, respectively.

Consider `CN(C)C(=O)c1nc[nH]c1C(=O)N[C@H]1CC[C@H](C(=O)Nc2ccc(F)cc2Cl)CC1` [Example 16, N^5-{trans-4-[(2-chloro-4-fluorophenyl)carbamoyl]cyclohexyl}-N^4,N^4-dimethyl-1H-imidazole-4,5-dicarboxamide], for which the values for the IC50 (against TNKS1; in assay [1]) were 1100 nM and ≥ 50000 nM, respectively.

For the compound `Cc1cc(C)n2ncc(C(=O)N[C@H]3CC[C@@]4(CCN(c5ccccc5Cl)C4=O)CC3)c2n1` [Example 257, N-[(trans)-2-(2-chlorophenyl)-1-oxo-2-azaspiro[4.5]dec-8-yl]-5,7-dimethylpyrazolo[1,5-a]pyrimidine-3-carboxamide], the IC50 against TNKS1 is 10 nM; in assay [1], ≥ 50000 nM.

`COCCNC(=O)c1nc[nH]c1C(=O)N[C@H]1CC[C@@]2(CCN(c3ccccc3Cl)C2=O)CC1` [Example 259, N^5-[(trans)-2-(2-chlorophenyl)-1-oxo-2-azaspiro[4.5]dec-8-yl]-N^4-(2-methoxyethyl)-1H-imidazole-4,5-dicarboxamide]: the IC50 was 12 nM at TNKS1 and ≥ 50000 nM in assay [1].

Take `Cc1cc(C)n2ncc(C(=O)N[C@H]3CC[C@@]4(CCN(c5ccc(F)cc5)C4=O)CC3)c2n1` [Example 211, N-[(trans)-2-(4-fluorophenyl)-1-oxo-2-azaspiro[4.5]dec-8-yl]-5,7-di methyl pyrazolo[1,5-a]pyrimidine-3-carboxamide]: the IC50 worked out at 430 nM against TNKS1 and 25000 nM in assay [1].

Consider `CNC(=O)c1nc[nH]c1C(=O)N[C@H]1CC[C@H](C(=O)Nc2cccnc2Cl)CC1` [Example 10, N^5-{trans-4-[(2-chloropyridin-3-yl)carbamoyl]cyclohexyl}-N^4-methyl-1H-imidazole-4,5-dicarboxamide], for which the IC50 against TNKS1 was 250 nM; in assay [1], ≥ 50000 nM.

As for `O=C(N[C@H]1CC[C@@]2(CCN(c3cccc(Cl)c3)C2=O)CC1)c1[nH]cnc1C(=O)N1CC(F)C1` [Example 280, N-[(trans)-2-(3-chlorophenyl)-1-oxo-2-azaspiro[4.5]dec-8-yl]-4-[(3-fluoroazetidin-1-yl)carbonyl]-1H-imidazole-5-carboxamide], the IC50 at TNKS1 was 220 nM; in assay [1], ≥ 50000 nM.

Consider `Cc1cc(N2CC[C@]3(CC[C@@H](NC(=O)c4cnc5cccnn45)CC3)C2=O)c(Cl)cc1F` [Example 265, N-[(trans)-2-(2-chloro-4-fluoro-5-methylphenyl)-1-oxo-2-azaspiro[4.5]dec-8-yl]imidazo[1,2-b]pyridazine-3-carboxamide], for which the concentration for half-maximal inhibition (IC50) against TNKS1 was 6.4 nM; in assay [1] it was ≥ 50000 nM.

For `Cc1cc(N2CC[C@]3(CC[C@@H](NC(=O)c4cnn5cccnc45)CC3)C2=O)c(Cl)cc1F` [Example 267, N-[(trans)-2-(2-chloro-4-fluoro-5-methylphenyl)-1-oxo-2-azaspiro[4.5]dec-8-yl]pyrazolo[1,5-a]pyrimidine-3-carboxamide], the IC50 is 9.9 nM on TNKS1 and ≥ 50000 nM in assay [1].

On to `CN(C)c1ccn2ncc(C(=O)N[C@H]3CC[C@@]4(CCN(c5ccc(F)cc5Cl)C4=O)CC3)c2n1` [Example 217, N-[(trans)-2-(2-chloro-4-fluorophenyl)-1-oxo-2-azaspiro[4.5]dec-8-yl]-5-(dimethylamino)pyrazolo[1,5-a]pyrimidine-3-carboxamide], for which the half-maximal inhibitory concentration (IC50) against TNKS1 was 6.1 nM; in assay [1], ≥ 50000 nM.

For the compound `CCNC(=O)c1[nH]cnc1C(=O)N[C@H]1CC[C@@]2(CCN(c3ccc(F)cc3)C2=O)CC1` [Example 213, N^5-ethyl-N^4-[(trans)-2-(4-fluorophenyl)-1-oxo-2-azaspiro[4.5]dec-8-yl]-1H-imidazole-4,5-dicarboxamide], the half-maximal inhibitory concentration (IC50) is 340 nM at TNKS1 and 30000 nM in assay [1].

In the case of `Cc1cc(C)n2ncc(C(=O)N[C@H]3CC[C@H](C(=O)Nc4cnccc4Cl)CC3)c2n1` [Example 169, N-{trans-4-[(4-chloropyridin-3-yl)carbamoyl]cyclohexyl}-5,7-dimethylpyrazolo[1,5-a]pyrimidine-3-carboxamide], the IC50 on TNKS1 was 35 nM; in assay [1], ≥ 50000 nM.

Turning to `O=C(NC1CC1)c1nc[nH]c1C(=O)N[C@H]1CC[C@@]2(CCN(c3cc(F)c(F)cc3Cl)C2=O)CC1` [Example 199, N^5-[(trans)-2-(2-chloro-4,5-difluorophenyl)-1-oxo-2-azaspiro[4.5]dec-8-yl]-N^4-cyclopropyl-1H-imidazole-4,5-dicarboxamide], the IC50 against TNKS1 was determined as 7.5 nM; in assay [1] it was 21000 nM.

Consider `O=C(N[C@H]1CC[C@@]2(CCN(c3cccc(Cl)c3)C2=O)CC1)c1cnn2cccnc12` [Example 268, N-[(trans)-2-(3-chlorophenyl)-1-oxo-2-azaspiro[4.5]dec-8-yl]pyrazolo[1,5-a]pyrimidine-3-carboxamide], for which the IC50 at TNKS1 was 540 nM; in assay [1], ≥ 50000 nM.

`O=C(N[C@H]1CC[C@H](C(=O)Nc2ccc(F)cc2Cl)CC1)c1cnc2ccccn12` [Example 206, N-{trans-4-[(2-chloro-4-fluorophenyl)carbamoyl]cyclohexyl}imidazo[1,2-a]pyridine-3-carboxamide]: the figures for the IC50 (on TNKS1; in assay [1]) were > 10000 nM and 25000 nM, respectively.

Turning to `Cc1ccccc1N(C)C(=O)[C@H]1CC[C@H](NC(=O)c2cnn3cccnc23)CC1` [Example 178, N-{trans-4-[methyl(2-methylphenyl)carbamoyl]cyclohexyl}pyrazolo[1,5-a]pyrimidine-3-carboxamide], the IC50 was 330 nM on TNKS1 and ≥ 50000 nM in assay [1].

Turning to `CC(C)NC(=O)c1nc[nH]c1C(=O)N[C@H]1CC[C@@]2(CCN(c3cc(F)c(F)cc3Cl)C2=O)CC1` [Example 198, N^5-[(trans)-2-(2-chloro-4,5-difluorophenyl)-1-oxo-2-azaspiro[4.5]dec-8-yl]-N^4-(propan-2-yl)-1H-imidazole-4,5-dicarboxamide], the results for the IC50 (on TNKS1; in assay [1]) were 8 nM and 19000 nM, respectively.
